According to US20240118281A1, “ANTICANCER COMPOUNDS AND USES THEREOF” (University of Florida Research Foundation, Incorporated, priority 2021, published 2024):

Tests used:
[1] = target: T1, AGR2 (Homo sapiens, UniProt O95994); assay: AGR2 dimer formation in stable cell lines, non-reducing immunoblot; format: cell-based; set-up: expressed in transfected cells; conditions: MDA-MB-468 stable cell lines, 5 μM, 24 h, FIG. 2F
T1 sequence (O95994 21-175): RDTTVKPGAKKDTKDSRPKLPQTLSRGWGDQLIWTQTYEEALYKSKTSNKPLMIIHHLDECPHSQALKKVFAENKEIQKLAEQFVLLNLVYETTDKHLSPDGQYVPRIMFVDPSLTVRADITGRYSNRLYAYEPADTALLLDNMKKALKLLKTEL
Protocol: (§1) To assess protein disulfide bond-mediated oligomerization, cells were treated with DDAs for 24 h in 10% FBS-DMEM. Cells were subsequently scraped directly into the media and pelleted by centrifugation. Cells were extracted directly into boiling 2×-SDS-Sample Buffer containing 100 mM NEM and boiled for 10 min. Samples were sonicated, followed by centrifugation for 20 min at room temperature. Samples were subsequently analyzed by SDS-PAGE and immunoblot.

[2] = system: DR5; assay: Doxycycline-inducible DR5 (wild type and Cys mutants) expression, non-reducing immunoblot; format: cell-based; conditions: MDA-MB-468 stable cell lines, 24 h, FIG. 7E
Protocol: as §1

[3] = target: T2, ERp44/DR5 complexes (Homo sapiens, UniProt Q9BS26); assay: ERp44 co-immunoprecipitation; format: cell-based; conditions: MDA-MB-468 cells inducibly expressing wild type DR5, 24 h, FIG. 7D
T2 construct: endogenous in cells; host or cells: MDA-MB-468
T2 sequence (Q9BS26 30-406): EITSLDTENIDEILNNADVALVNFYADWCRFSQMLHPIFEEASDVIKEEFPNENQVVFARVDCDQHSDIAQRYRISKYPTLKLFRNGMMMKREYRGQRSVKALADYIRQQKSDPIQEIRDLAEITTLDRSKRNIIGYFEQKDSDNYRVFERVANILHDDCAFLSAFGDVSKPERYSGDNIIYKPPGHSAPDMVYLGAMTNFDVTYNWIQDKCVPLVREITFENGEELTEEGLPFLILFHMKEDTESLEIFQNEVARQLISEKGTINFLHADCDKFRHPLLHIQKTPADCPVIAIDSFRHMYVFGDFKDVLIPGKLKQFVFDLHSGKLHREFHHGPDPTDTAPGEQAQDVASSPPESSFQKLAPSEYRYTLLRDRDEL
T2 sequence (O14763 56-440 partner): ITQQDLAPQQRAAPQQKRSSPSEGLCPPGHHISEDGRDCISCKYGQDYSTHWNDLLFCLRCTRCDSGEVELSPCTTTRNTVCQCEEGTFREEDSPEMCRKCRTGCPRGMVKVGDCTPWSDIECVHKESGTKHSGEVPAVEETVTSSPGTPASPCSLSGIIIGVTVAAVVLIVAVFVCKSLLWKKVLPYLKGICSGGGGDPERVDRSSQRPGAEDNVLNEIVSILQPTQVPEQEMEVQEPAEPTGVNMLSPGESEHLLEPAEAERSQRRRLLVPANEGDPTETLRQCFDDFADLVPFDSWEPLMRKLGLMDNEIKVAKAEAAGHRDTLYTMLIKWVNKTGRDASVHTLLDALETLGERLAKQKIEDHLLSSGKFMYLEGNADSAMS

[4] = target: T3, ERp44/DR5 complexes (Homo sapiens, UniProt Q9BS26); assay: ERp44 co-immunoprecipitation; format: cell-based; conditions: MDA-MB-468 cells inducibly expressing Δ81-178 DR5, 24 h, FIG. 7D
T3 construct: endogenous in cells; host or cells: MDA-MB-468
T3 sequence (Q9BS26 30-406, one chain of several): as the sequence (Q9BS26 30-406) above

[5] = system: Caspase 8; assay: Caspase 8 cleavage/activation (CC8), immunoblot; format: cell-based; conditions: 24 h
Source text: The BT20, BT474, BT549, MCF7, MDA-MB-231, MDA-MB-436, MDA-MB-468, HCC1143, HCC1500, HCC1569, HCC1937, HCC1954, Hs578t, and T47D cells lines were purchased from American Type Culture Collection (ATCC) (Manassas, VA). The HCI-001 cell line was derived from an ER-/PR-/HER2- patient-derived xenograft originally isolated from a patient as described previously (DeRose Y S, et al. Nat Med 2011; 17: 1514-1520). The HCI-001/LVM2 model was derived from the HCI-001 cell line by performing two rounds of selection for liver metastasis, as described previously (Wang M, et al. Cell Death Discovery 2019; 5: 153). Cell lines were grown in Dulbecco's Modified Eagle's Medium (GE Healthcare Life Sciences, Logan, UT) containing 10% fetal bovine serum (10% FBS—DMEM) in a humidified incubator with 5% CO2 at 37° C. Cell lysates were prepared as described previously (Law B K, et al. Mol Cell Biol. 2002; 22: 8184-8198). […]
To assess protein disulfide bond-mediated oligomerization, cells were treated with DDAs for 24 h in 10% FBS-DMEM. […] Samples were subsequently analyzed by SDS-PAGE and immunoblot.

[6] = target: T4, AGR3 (Homo sapiens, UniProt Q8TD06); assay: DDA binding assay with AGR3; conditions: molar excess, pre-incubation with 600 μM, FIG. 2D
T4 construct: His6 (N); purchased ProSpec PRO-242
T4 sequence (Q8TD06 22-166): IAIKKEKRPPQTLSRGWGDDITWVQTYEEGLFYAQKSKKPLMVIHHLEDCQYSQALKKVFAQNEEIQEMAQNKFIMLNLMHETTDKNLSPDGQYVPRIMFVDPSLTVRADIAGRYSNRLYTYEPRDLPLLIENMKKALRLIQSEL
Protocol: (§2) Purified His6-AGR2 or His6-AGR2 C81S, as prepared above, or His6-AGR2 (PRO-580) or His6-AGR3 (PRO-242) obtained from ProSpec (New Brunswick NJ) were incubated with or without varying concentrations of the unlabeled DDA competitors, tcyDTDO or dMtcyDTDO, and 30 μM Biotin-GlyPyrDTDO or Biotin-PyrDTDO in buffer (20 mM HEPES (pH 7.4), 1 mM EDTA, 1 mM EGTA, 5% Glycerol, 1 nM Microcystin, 1 mM Na3VO4, and 40 mM Na2H2P2O7) containing 1% Triton-X 100 for 30 min at 37° C. […] Therefore, the two probes were used interchangeably. Reactions were stopped by boiling the samples in 2×-SDS-Sample Buffer containing 100 mM NEM for 10 min. Biotin-DDA labeling of protein was verified by blotting with Streptavidin-Alkaline Phosphatase (Rockland Immunochemicals, Inc., Limerick, PA). ERp44 (PRO-547) and PDIA1 (ENZ-262) were obtained from ProSpec and used in experiments examining the binding of these proteins to Biotin-PyrDTDO.

[7] = system: MDA-MB-468 cells; assay: Cell viability (MTT) assay; format: cell-based; conditions: FIG. 1D
Protocol: MTT (3-(4,5-dimethylthiazol-2-yl)-2,5-diphenyltetrazolium bromide) (Biomatik, Wilmington, DE) assays were performed by plating 7,500 cells/well in 10% FBS/DMEM in a 96-well plate, followed by incubation at 37° C. for 24 h. Cells were then treated with vehicle or increasing concentrations of tcyDTDO, dMtcyDTDO, or dFtcyDTDO and incubated at 37° C. for 72 h. Cell media was subsequently removed from each well and MTT assays were initiated by incubating cells with 0.5 mg/ml MTT in PBS for 3 h, followed by removal of the MTT solution and addition of 100 µL of DMSO to each well for 30 min. Absorbance of the MTT formazan product was subsequently measured at 570 and 690 (reference) nm in a plate reader.

[8] = target: T5, PDIA1 (Homo sapiens, UniProt P07237); assay: In vitro binding assay with recombinant purified PDIA1; conditions: pre-incubation with a molar excess, FIG. 3D
T5 sequence (P07237 18-508): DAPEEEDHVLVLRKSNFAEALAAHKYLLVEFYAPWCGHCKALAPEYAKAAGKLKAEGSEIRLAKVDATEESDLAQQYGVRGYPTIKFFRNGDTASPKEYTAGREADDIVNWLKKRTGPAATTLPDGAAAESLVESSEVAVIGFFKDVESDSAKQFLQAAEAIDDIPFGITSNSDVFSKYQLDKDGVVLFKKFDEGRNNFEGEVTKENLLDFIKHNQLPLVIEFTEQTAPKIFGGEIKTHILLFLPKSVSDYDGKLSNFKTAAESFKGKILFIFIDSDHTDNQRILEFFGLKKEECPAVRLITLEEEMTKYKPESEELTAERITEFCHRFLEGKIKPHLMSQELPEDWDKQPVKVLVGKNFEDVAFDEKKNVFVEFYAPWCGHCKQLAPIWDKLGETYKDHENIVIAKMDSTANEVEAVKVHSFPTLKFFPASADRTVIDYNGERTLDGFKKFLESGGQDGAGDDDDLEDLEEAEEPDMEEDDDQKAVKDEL
Protocol: as §2

[9] = target: T5, PDIA1; assay: PDIA1 disulfide bonding with client proteins, non-reducing immunoblot; format: cell-based; set-up: endogenous in cells; host or cells: MDA-MB-468; conditions: MDA-MB-468 cells, 5 μM, 24 h, FIG. 3E
Protocol: as §1

CO[C@H]1C[C@@H]2CS(=O)(=O)SC[C@H]2C[C@@H]1OC [dMtcyDTDO, dimethoxy-tcyDTDO]
AGR2 dimer formation in cells with enforced AGR2 expression [1]: blocked dimer formation by wild type AGR2
Expression of C119S or C160S DR5 mutants [2]: did not further increase expression of the C119S or C160S DR5 mutants
Wild type DR5 expression on co-treatment with doxycycline [2]: further increased DR5 expression
ERp44 binding to wild type DR5 in treated cells [3]: wild type DR5 bound ERp44
ERp44 binding to DR5[Δ81-178] in treated cells [4]: barely detectable
Induction of Caspase 8 cleavage/activation (CC8) in ERp44 knockdown versus vector control cells ([5]; MDA-MB-468 cells, 2.5 or 5 μM, FIG. 5D): increased dMtcyDTDO induction of Caspase 8 cleavage/activation
Caspase 8 cleavage in cells expressing C119S or C160S DR5 mutants ([5]; MDA-MB-468 stable cell lines, FIG. 7E): modestly increased Caspase 8 cleavage
Competition with Biotin-GlyPyrDTDO binding to AGR3 [6]: partially prevented Biotin-GlyPyrDTDO binding
Potency in cell viability assays relative to tcyDTDO [7]: approximately two-fold greater potency than tcyDTDO
Block of Biotin-PyrDTDO biotinylation of PDIA1 [8]: biotinylation was blocked
Disulfide bonding of PDIA1 with client proteins [9]: reduces disulfide bonding of ERp44 and PDIA1 with multiple proteins
Monomeric levels of PDIA1 [9]: minimal effect on monomeric levels
